SMILES strings stand for the structures. A value given as a limit tells only on which side of the number the result lay.

The text below walks through data of patent US8119614B2, “Substitution derivatives of N6-benzyladenosine, methods of their preparation, their use for preparation of drugs, cosmetic preparations and growth regulators, pharmaceutical preparations, cosmetic preparations and growth regulators containing these compounds” (Ustav Experimentalni Botaniky Akademie Ved Ceske Republiky, priority 2002, dated 2012).

Experiment [1] deals with breast carcinoma cell lines MCF-7. Nature of the experiment: In vitro cytotoxic activity, Calcein AM assay, MCF7. Type of experiment: cell-based, human. The settings on record: 72 hours, read-out: IC 50 MCF7. The text has this:
(§1) One of the parameters used, as the basis for cytotoxicity assays, is the metabolic activity of viable cells. For example, a microtiter assay, which uses the Calcein AM, is now widely used to quantitate cell proliferation and cytotoxicity. For instance, this assay is used in drug screening programs and in chemosensitivity testing. Because only metabolically active cells cleave Calcein AM, these assays detect viable cells exclusively. The quantity of reduced Calcein AM corresponds to the number of vital cells in the culture.
(§2) Human T-lymphoblastic leukemia cell line CEM; promyelocytic HL-60 and monocytic U937 leukemias; breast carcinoma cell lines MCF-7; cervical carcinoma cells HELA; mouse fibroblasts NIH3T3; human erythroleukaemia K562 and human malignant melanoma cells G361 were used for routine screening of compounds. The cells were maintained in Nunc/Corning 80 cm^2 plastic tissue culture flasks and cultured in cell culture medium (DMEM with 5 g/l glucose, 2 mM glutamine, 100 U/ml penicillin, 100 μg/ml streptomycin, 10% fetal calf serum and sodium bicarbonate).
(§3) The cell suspensions that were prepared and diluted according to the particular cell type and the expected target cell density (10^4 cells per well based on cell growth characteristics) were added by pipette (80 μl) into 96/well microtiter plates. Inoculates were allowed a pre-incubation period of 24 hours at 37° C. and 5% CO2 for stabilisation. Four-fold dilutions of the intended test concentration were added at time zero in 20 μl aliquots to the microtiter plate wells. Usually, test compound was evaluated at six 4-fold dilutions. In routine testing, the highest well concentration was 166.7 μM, but it can be the matter of change dependent on the agent. All drug concentrations were examined in duplicates. Incubations of cells with the test compounds lasted for 72 hours at 37° C., in 5% CO2 atmosphere and 100% humidity. At the end of incubation period, the cells were assayed by using the Calcein AM. Ten microliters of the stock solution were pipetted into each well and incubated further for 1 hours. Fluorescence (FD) was measured with the Labsystem FIA Reader Fluoroscan Ascent (UK). The tumour cell survival (GI50) was calculated using the following equitation: GI50=(FDdrug exposed well/mean FDcontrol wells)×100%. The GI50 value, the drug concentration lethal to 50% of the tumour cells, was calculated from the obtained dose response curves (FIG. 3).

The next experiment concerns promyelocytic HL-60. Description: In vitro cytotoxic activity, Calcein AM assay, HL60. The class given is cell-based, human. To be noted: 72 hours, read-out: IC 50 HL60.
Source text: as §1, §2, §3

A further experiment concerns mouse fibroblasts NIH3T3. Nature of the experiment: In vitro cytotoxic activity, Calcein AM assay, NIH-3T3. The class given is cell-based. The settings on record: 72 hours, read-out: IC 50 NIH-3T3.
Source text: as §1, §2, §3

In experiment [2] the test system is Human T-lymphoblastic leukemia cell line CEM. Nature of the experiment: In vitro cytotoxic activity, Calcein AM assay, CEM. The class given is cell-based. To be noted: 72 hours.
Source text: as §1, §2, §3

Experiment [3] deals with human erythroleukaemia K562. Description: In vitro cytotoxic activity, Calcein AM assay, K-562. The settings on record: 72 hours, read-out: IC 50 K-562. Type of experiment: cell-based.
Source text: as §1, §2, §3

The next experiment has as its system HOS. Nature of the experiment: In vitro cytotoxic activity, Calcein AM assay, HOS. The class given is cell-based. The settings on record: 72 hours.
Experiment [4] relates to Amaranthus caudatus cotyledon/hypocotyl explants. Description: Amaranthus bioassay (betacyanin content). The settings on record: for Concentration with highest activity: 48 h dark; for Activity (%) [10^−5 mol · l^−1 BAP = 100%]: at concentration with highest activity. The class given is in vivo. As for the experimental part: Standard Amaranthus bioassay was performed with several modifications. The seeds of Amaranthus caudatus var. atropurpurea were surface-sterilised in 10% N-chlorobenzenesulfonamide (w/v) for 10 min and washed 5 times in deionized water. They were placed in 15 cm Petri dishes containing paper tissues saturated with deionized water. After 72 h of cultivation at 25° C. in darkness, the roots of the seedlings were cut off. The explants, consisting of two cotyledons and hypocotyls, were placed in 5 cm Petri dishes on two layers of filter paper soaked in 1 ml of incubation medium containing 10 μmol NA2HPO4-KH2PO4, pH 6.8, 5 μmol tyrosine and the cytokinin to be tested. There were 20 explants per dish. The procedure was carried out under a green safe light in a darkroom. After a 48 h of incubation at 25° C. in darkness, betacyanin was extracted by freezing the explants in 4 ml […] acetic acid. The concentration of betacyanin was determined by comparing the absorbance at 537 nm and 620 nm as follows: ΔA=[…]-[…]. From the obtained data, the concentration with highest activity was selected for each compound tested. Relative activity of the compound at this concentration was calculated (Tab. 12). […] The values shown in table 8 are means of five replicates and the entire test was repeated twice. The cytokinins to be tested were dissolved in dimethylsulfoxide (DMSO) and the solution brought up to 10^-3M with distilled water. This stock was further diluted in the respective media used for the biotest to concentrations ranging from 10^-8M to 10^-4M. […] From the data obtained (FIG. 14) the maximum effective concentration of the tested compound was calculated as well as its relative effectiveness at this concentration (Table 12). […]

Take `Nc1nc(NCc2ccc(F)cc2)c2ncn([C@@H]3O[C@H](CO)[C@@H](O)[C@H]3O)c2n1` [R2 = NH2,4-fluorobenzylamino]: the IC50 in experiment [1] was 25 µM; in the experiment with promyelocytic HL-60 it was 2.9 µM; with mouse fibroblasts NIH3T3 it was greater than 167 µM; in experiment [2], 12.1 µM; in experiment [3] it was 13 µM; in the experiment on HOS it was 43 µM.
Take `OCC1OC(n2cnc3c(NCc4ccccc4F)nc(Cl)nc32)C(O)C1O` (stereo not drawn) [R2 = Cl, 2-fluorobenzylamino]: the IC50 is greater than 167 µM in experiment [1]; 2.5 µM in the experiment with promyelocytic HL-60; 4.2 µM in experiment [2]; 30 µM in experiment [3]; greater than 167 µM with HOS.
With `COc1cc(CNc2ncnc3c2ncn3[C@@H]2O[C@H](CO)[C@@H](O)[C@H]2O)cc(OC)c1` [3,5-dimethoxyxybenzylamino, 6-(3,5-dimethoxybenzylamino)purine riboside], the IC50 in experiment [1] was greater than 167 µM; with promyelocytic HL-60, 18.8 µM; with mouse fibroblasts NIH3T3 it was greater than 167 µM; in experiment [3], greater than 167 µM; in the experiment on HOS, greater than 167 µM.
Consider `O=[N+]([O-])c1ccc(CNc2ncnc3c2ncn3[C@@H]2O[C@H](CO)[C@@H](O)[C@H]2O)cc1` [4-nitrobenzylamino, 6-(4-nitrobenzylamino)purine riboside], for which, in experiment [4], the “Concentration with highest activity” value is listed as 10^−4 mol · l^−1 and the “Activity (%) [10^−5 mol · l^−1 BAP = 100%]” value was 25 ± 3%.
With `O=[N+]([O-])c1cccc(CNc2ncnc3c2ncn3[C@@H]2O[C@H](CO)[C@@H](O)[C@H]2O)c1` [3-nitrobenzylamino, 6-(3-nitrobenzylamino)purine riboside], in experiment [4], the “Concentration with highest activity” value is recorded as 10^−4 mol · l^−1 and the “Activity (%) [10^−5 mol · l^−1 BAP = 100%]” value was determined as 66 ± 7%.
Turning to `Nc1nc(NCc2ccccc2F)c2ncn([C@@H]3O[C@H](CO)[C@@H](O)[C@H]3O)c2n1` [R2 = NH2,2-fluorobenzylamino], the IC50 is greater than 167 µM in experiment [1]; 8.7 µM in the experiment on promyelocytic HL-60; 14.5 µM in experiment [2]; 45 µM in experiment [3]; greater than 167 µM in the experiment on HOS.
Regarding `OCC1OC(n2cnc3c(NCc4ccccc4Cl)nc(Cl)nc32)C(O)C1O` (stereo not drawn) [R2 = Cl, 2-chlorobenzylamino], the IC50 is greater than 167 µM in experiment [1]; 1.2 µM in the experiment on promyelocytic HL-60; greater than 167 µM with mouse fibroblasts NIH3T3; 8.5 µM in experiment [2]; 61 µM in experiment [3]; greater than 167 µM in the experiment on HOS.
Take `CSc1nc(NCc2ccccc2F)c2ncn([C@@H]3O[C@H](CO)[C@@H](O)[C@H]3O)c2n1` [R2 = SCH3,2-fluorobenzylamino]: the IC50 in experiment [1] is greater than 167 µM; with promyelocytic HL-60, 11.4 µM; in experiment [2], 9.7 µM; in experiment [3], 42 µM; with HOS it was greater than 167 µM.
Consider `Nc1nc(NCc2ccccc2Cl)c2ncn(C3OC(CO)C(O)C3O)c2n1` (stereo not drawn) [R2 = NH2,2-chlorobenzylamino], for which the IC50 in experiment [1] is greater than 167 µM; in the experiment on promyelocytic HL-60, 10.3 µM; in the experiment with mouse fibroblasts NIH3T3, greater than 167 µM; in experiment [2] it was 24.7 µM; in experiment [3], 78 µM; in the experiment on HOS, greater than 167 µM.
For `CSc1nc(NCc2cccc(Cl)c2)c2ncn([C@@H]3O[C@H](CO)[C@@H](O)[C@H]3O)c2n1` [R2 = SCH3,3-chlorobenzylamino], the IC50 in experiment [1] is greater than 167 µM; in the experiment on promyelocytic HL-60, 6.1 µM; in the experiment on mouse fibroblasts NIH3T3, greater than 167 µM; in experiment [2], 13.2 µM; in experiment [3], 35 µM; with HOS it was greater than 167 µM.
For the compound `OC[C@H]1O[C@@H](n2cnc3c(NCc4cccc(Cl)c4)nc(Cl)nc32)[C@H](O)[C@@H]1O` [R2 = Cl, 3-chlorobenzylamino], the IC50 in experiment [1] is greater than 167 µM; with promyelocytic HL-60 it was 0.6 µM; in the experiment with mouse fibroblasts NIH3T3, greater than 167 µM; in experiment [2], 1.1 µM; in experiment [3], 28 µM; in the experiment with HOS, greater than 167 µM.
